Test results taken from article PMC9929232, “On-demand male contraception via acute inhibition of soluble adenylyl cyclase” (Nature Communications, 2023).
Where “and” joins values, the source holds several entries; their conditions need not be identical. Equal entries are not always repeated.

Key:
epididymal mouse sperm [1] = assay: Ex vivo cAMP generation in epididymal sperm from inhibitor-treated male mice (oral or i.p.)
Procedure: For capacitation, sperm were incubated for 90 min in TYH containing 3 mg/ml BSA and 25 mM NaHCO3 in a 37 °C incubator. To control for the consequences of dilution during isolation of epididymal mouse sperm for ex vivo assays, we assessed the ability of bicarbonate to induce a prototypical pattern of tyrosine phosphorylation (pY) which is a widely used molecular hallmark of capacitation[53]. […] For experiments studying sperm from injected mice, ‘swim out’ was performed in 200 μl TYH, which corresponded to a 1:10 dilution from epididymis (20 μg cauda in 200 μl buffer). Capacitation-induced changes were assessed by adding 50 µl of ‘swim out’ sperm to increasing volumes of capacitating TYH buffer.
Intracellular cAMP levels were quantified using the Direct cAMP ELISA kit (Enzo) as above.

epididymal mouse sperm [2] = assay: Ex vivo motility (CASA) of epididymal sperm from inhibitor-treated male mice; assay type: in vivo; set-up: hyperactivated motility (%): concentration or dose not given beside the values
Procedure: Sperm movements of 10 fields of at least 200 sperm were examined using computer-assisted sperm analysis (CASA) via Hamilton–Thorne digital image analyzer (IVOS II, Hamilton Thorne Research, Beverly, MA) with the following parameters: 30 frames, frame rate: 60 Hz, cell size: 30–170 μm^2. Ejaculated uterine mouse sperm were recorded without additional dilution. Sperm were considered motile when presenting STR ≥80% and VAP ≥50 μm/s and hyperactivated when presenting VCL ≥270 μm/s, LIN < 50%, and ALH ≥7 μm. Track´s color code: motile (green), progressive (turquoise), hyperactivated (purple), slow (pink), static (red), not counted due to late entry (yellow).

human sperm = assay: Acrosome reaction assay, human sperm, progesterone-evoked; assay type: cell-based
Procedure: Acrosome reaction was induced by incubating mouse sperm with 50 mouse solubilized zonae pellucidae for 15 min at 37 °C. Human sperm were incubated with 10 μM progesterone for 30 min at 37 °C. […] Samples were air-dried on microscope slides and fixed for 30 minutes in 100% ethanol at room temperature (RT). For acrosome staining, mouse and human sperm were incubated for 30 min in the dark with 5 μg/ml PNA-FITC or 5 μg/ml PSA-FITC, respectively, and counterstained with 2 μg/ml DAPI. After curing, slides were analyzed using a Zeiss LSM 880 Laser Scanning Confocal Microscope; images were captured with two photomultiplier and one Gallium Arsenide Phosphide detector using ZEN Imaging software. For each condition, at least 600 cells were analyzed using ImageJ 1.52.

[3] = target: T1, purified recombinant human sAC protein (Homo sapiens, UniProt Q96PN6); assay: In vitro adenylyl cyclase activity assay (two-column method);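 as to cyclase activity (%): 100% equals DMSO vehicle-treated control activity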; assay type: biochemical; set-up: cyclase activity: unit not given here; settings: for cyclase activity (%): Fig. 1c normalized replicates; for cyclase activity: Fig. 1c replicates
T1 construct: human sACt protein was incubated
T1 sequence (Q96PN6 1-469 limits assumed): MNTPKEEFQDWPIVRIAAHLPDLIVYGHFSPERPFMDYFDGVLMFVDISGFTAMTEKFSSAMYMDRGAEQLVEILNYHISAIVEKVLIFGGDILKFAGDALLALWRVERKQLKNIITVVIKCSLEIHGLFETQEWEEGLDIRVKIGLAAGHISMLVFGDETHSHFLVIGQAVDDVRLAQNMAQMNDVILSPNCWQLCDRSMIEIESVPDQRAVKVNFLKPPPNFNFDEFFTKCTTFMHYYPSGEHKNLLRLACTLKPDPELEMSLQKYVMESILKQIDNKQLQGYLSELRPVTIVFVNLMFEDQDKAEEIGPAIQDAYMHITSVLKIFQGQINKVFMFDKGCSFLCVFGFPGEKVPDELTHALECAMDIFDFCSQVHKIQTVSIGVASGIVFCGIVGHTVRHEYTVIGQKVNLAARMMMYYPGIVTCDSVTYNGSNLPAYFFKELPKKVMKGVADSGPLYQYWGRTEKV
Procedure: All in vitro adenylyl cyclase activity assays were performed via the “two-column” method measuring the conversion of [α-^32P] ATP into [^32P] cAMP[54], as previously described. Briefly, human sACt protein was incubated in buffer containing 50 mM Tris-HCl, pH 7.5, 4 mM MgCl2, 2 mM CaCl2, 1 mM ATP, 3 mM DTT, 40 mM NaHCO3 in the presence of the indicated concentrations of different sAC inhibitors or vehicle (1% DMSO).

mouse sperm = assay: cAMP generation in mouse sperm in vitro, incl. wash-out by dilution; settings: 12 minutes
Procedure: For capacitation, sperm were incubated for 90 min in TYH containing 3 mg/ml BSA and 25 mM NaHCO3 in a 37 °C incubator. To control for the consequences of dilution during isolation of epididymal mouse sperm for ex vivo assays, we assessed the ability of bicarbonate to induce a prototypical pattern of tyrosine phosphorylation (pY) which is a widely used molecular hallmark of capacitation[53]. Bicarbonate-induced pY is known to be sAC dependent in vitro[20],[22],[35]. For experiments studying sperm from injected mice, ‘swim out’ was performed in 200 μl TYH, which corresponded to a 1:10 dilution from epididymis (20 μg cauda in 200 μl buffer). Capacitation-induced changes were assessed by adding 50 µl of ‘swim out’ sperm to increasing volumes of capacitating TYH buffer.
cAMP generation was measured in mouse and human sperm. […] For human sperm, aliquots of 2 × 10^6 cells were incubated for 30 min in the presence or absence of sAC inhibitor in non-capacitating or capacitating HTF buffer. In both cases, 0.1% DMSO was used as vehicle control.
After 5 min, 150 µl of sperm/inhibitor mix was diluted into 1.35 ml non-capacitating or capacitating media with no inhibitor. […] Sperm lysates were centrifuged at 2000 × g for 3 min and the cAMP in the supernatant was acetylated and quantified using the Direct cAMP ELISA kit (Enzo).

[4] = concentration (uM) -0.52288 [sic]
[5] = concentration (uM) -1.95424 [sic]
[6] = concentration (uM) -2.43136 [sic]
[7] = concentration (uM) -2.90848 [sic]
[8] = concentration (uM) -3.38561 [sic]
[9] = concentration (uM) -3.86274 [sic]
[10] = concentration (uM) -4.33985 [sic]
[11] = concentration (uM) -4.81696 [sic]
[12] = concentration (uM) printed -1.47712
[13] = sheet Fig. 2a replicates, 5 μM TDI-10229 or 10 nM TDI-11861 present
[14] = sheet Fig. 2b replicates, 5 min preincubation in 5 μM TDI-10229 or 10 nM TDI-11861, diluted 1:100 into inhibitor-free media

Nc1nc(Cl)cc(-c2nn(C(F)F)cc2Cc2ccccc2OCCN2CCOC[C@@H]2CO)n1 [TDI-11861]
bicarbonate-induced cAMP response, sperm directly isolated (epididymal mouse sperm [1]; 50 mg/kg i.p.): prevented bicarbonate-induced increase in cAMP | inhibition of bicarbonate-induced cAMP elevation and motility after ex vivo dilution (epididymal mouse sperm [1]; 50 mg/kg i.p.): persisted following ex vivo dilution | bicarbonate-induced cAMP response, sperm measured directly (epididymal mouse sperm [1]; 50 mg/kg oral, 1 hour, cauda sperm): no bicarbonate-induced increase in cAMP | normalized cAMP, diluted (epididymal mouse sperm [1]; Fig. 3a replicates, 50 mg/kg oral gavage, 100-fold dilution into inhibitor-free media, capacitating relative to non-capacitated, 50 mg/kg): 1.404 and 1.468 and 0.846 and 0.4392 and 0.6198 and 0.8825 and 1.178 and 0.8649 and 1.043 | normalized cAMP, non-diluted (epididymal mouse sperm [1]; Fig. 3a replicates, 50 mg/kg oral gavage, capacitating relative to non-capacitated sperm of same mouse, 12 minutes, 50 mg/kg): 1.2234 and 1.098 and 0.3601 and 0.9436 and 0.9025 and 0.6956 and 0.2677 and 0.09176 and 0.3627 | normalize cAMP, diluted (epididymal mouse sperm [1]; Fig. 3c replicates, 50 mg/kg i.p., 100-fold dilution into inhibitor-free media, capacitating relative to non-capacitated, 50 mg/kg): 0.9454 and 0.4612 and 0.4886 and 0.7809 and 1.256 and 0.4688 and 0.8437 and 0.776 and 0.4914 and 0.7724 and 0.3623 | normalize cAMP, non-diluted (epididymal mouse sperm [1]; Fig. 3c replicates, 50 mg/kg i.p., capacitating relative to non-capacitated sperm of same mouse, 12 minutes, 50 mg/kg): 0.1221 and 0.9832 and 1.008 and 0.7764 and 0.7982 and 0.2443 and 0.1415 and 0.1173 and 0.5249 and 1.087 and 1.4 | earliest time of motility inhibition post i.p.-injection (epididymal mouse sperm [2]; 50 mg/kg i.p.): 15 min | recovery of sperm motility (epididymal mouse sperm [2]; 50 mg/kg i.p., 24 hours post-injection): most sperm from TDI-11861-injected mice had recovered motility | motility of epididymal sperm diluted ex vivo (epididymal mouse sperm [2]; 50 mg/kg oral): essentially immotile | motility (%) (epididymal mouse sperm [2]; Fig. 3b replicates, 50 mg/kg oral gavage, 1 hour, diluted 1:100 in inhibitor-free non-capacitating media, CASA, 50 mg/kg): 2.8% and 0.5% and 0.3% and 0.7% and 1.7% and 1.9% and 3.3% and 1.6% and 3.6% and 3.8% and 1.1% | motility (%), + cAMP (epididymal mouse sperm [2]; Fig. 3b replicates, 50 mg/kg oral gavage, 1 hour, in presence of 5 mM db-cAMP/500 μM IBMX, 50 mg/kg): 10.8% and 22.6% and 32.3% and 13.1% and 19.4% and 14.6% and 14% and 11.2% | progressive motility (%) (epididymal mouse sperm [2]; Fig. 4b, epididymal sperm): 0.9% and 1.3% and 2.1% and 0.4% and 1.5% and 0.8% and 0.3% | hyperactivated motility (%) (epididymal mouse sperm [2]; Fig. 4c, epididymal sperm): 0.8% and 0.4% and 1.6% and 0.2% and 0.1% and 0.6% and 0.3% | motility (%) (epididymal mouse sperm [2]; Fig. 5, time 0.25 h): 0.4% and 0.6% and 0.8% and 0.3% and 0.7% and 1.3% and 1% | motility (%) (epididymal mouse sperm [2]; Fig. 5, time 0.5 h): 3.4% and 0.5% and 1.4% and 4.6% and 1.7% and 0.9% | motility (%) (epididymal mouse sperm [2]; Fig. 5, time 2 h): 1.1% and 1.7% and 1.2% and 0.7% and 2.3% and 2.7% | motility (%) (epididymal mouse sperm [2]; Fig. 5, time 2.5 h): 0.8% and 6.3% and 0.7% and 1.3% and 0.9% and 0.4% | motility (%) (epididymal mouse sperm [2]; Fig. 5, time 3 h): 1.2% and 0.4% and 6.5% and 6.2% and 3.7% | motility (%) (epididymal mouse sperm [2]; Fig. 5, time 24 h): 22.8% and 19.1% and 22% and 33.1% and 20.5% and 20.6% | motility (%) (epididymal mouse sperm [2]; Fig. 3d, + cAMP, individual replicates): 17.3% and 12.5% and 13.3% and 33% and 16.6% and 14.6% | motility (%) (epididymal mouse sperm [2]; Fig. 3d, individual replicates): 3% and 0.6% and 2% (2×) and 1.9% and 3.8% and 2.2% and 2.3% and 1.4% and 0.9% (2×) and 2.5% and 0.4% and 0.2% and 1.1% and 2.8% | toxicity to sperm (rescue of acrosome response by cAMP/IBMX) (human sperm): not toxic to sperm | Acrosome reacted (%), Prog (human sperm; Fig. 2h replicates, 10 μM progesterone, 5 μM TDI-10229 or 10 nM TDI-11861): 11.2728% and 11.1787% and 11.2041% and 9.266% and 10.4762% and 13.6206% | Acrosome reacted (%), Prog + db-cAMP/IBMX (human sperm; Fig. 2h replicates, 10 μM progesterone, 5 mM db-cAMP/500 μM IBMX, 5 μM TDI-10229 or 10 nM TDI-11861): 28.3207% and 19.1712% and 18.125% and 29.0658% and 24.3412% and 18.4673% | Acrosome reacted (%), basal + db-cAMP/IBMX (human sperm; Fig. 2h replicates, 5 mM db-cAMP/500 μM IBMX, 5 μM TDI-10229 or 10 nM TDI-11861): 16.1667% and 6.667% and 10.5% and 10.6667% and 19.1045% and 11.7728% | Acrosome reacted (%), basal (human sperm; Fig. 2h replicates, 180 min capacitating media, 5 μM TDI-10229 or 10 nM TDI-11861): 12.5473% and 10% and 15.2336% and 15.1667% and 10.3704% and 13.6209% | cyclase activity (%) [3, 4]: 0% | cyclase activity (%) ([3]; concentration (uM) -1 [sic]): 1.344% and 1.8728% and 2.004% and 2.905% and 3.587% and 4.384% | cyclase activity (%) [3, 5]: 19.6796% and 15.3927% and 17.558% and 30.5194% and 31.8303% and 33.3011% | cyclase activity (%) [3, 6]: 38.6741% and 36.8021% and 41.7291% and 63.9723% and 46.6554% and 57.8417% | cyclase activity (%) [3, 7]: 59.9199% and 65.2563% and 61.8852% and 88.985% and 69.2179% and 73.6242% | cyclase activity (%) [3, 8]: 101.82% and 89.3095% and 88.0533% and 91.9223% and 87.6768% and 92.6716% | cyclase activity (%) [3, 9]: 102.032% and 91.5857% and 92.0528% and 108.947% and 93.3751% and 103.72% | cyclase activity (%) [3, 10]: 103.469% and 99.6453% and 98.4201% and 105.132% and 92.0891% and 95.6319% | cyclase activity (%) [3, 11]: 100% | cyclase activity (%) [3, 12]: 6.461% and 6.308% and 6.301% and 11.7225% and 11.6858% and 13.5507% | cyclase activity [3, 4]: 2069 and 1544 and 1561.8 and 2385.2 and 2164.1 and 1653.5 | cyclase activity ([3]; concentration (uM) -1 [sic]): 2867.6 and 2750.4 and 2889.4 and 3159.9 and 3272.8 and 3037.2 | cyclase activity [3, 5]: 13763.6 and 11459.5 and 13193 and 10525 and 12002.6 and 12163.6 | cyclase activity [3, 6]: 25051.1 and 25250.8 and 29205 and 19447.2 and 16584.9 and 19908.8 | cyclase activity [3, 7]: 37676.4 and 43580.1 and 42557.3 and 26118.3 and 23558.8 and 24889.9 | cyclase activity [3, 8]: 62575.6 and 59074.4 and 59892.2 and 26901.7 and 29264.3 and 30901.4 | cyclase activity [3, 9]: 62701.3 and 60540.7 and 62541.6 and 31442.4 and 31025.6 and 34388.3 | cyclase activity [3, 10]: 63555.2 and 65732.4 and 66759.6 and 30424.8 and 30628.1 and 31835.7 | cyclase activity [3, 11]: 61494 and 65960.9 and 67806.2 and 29056.1 and 33073.3 and 33214.3 | cyclase activity [3, 12]: 5908.5 and 5607.6 and 5735.6 and 5511.7 and 5776.1 and 5930.2 | cAMP, capacitation media (mouse sperm; [13]): 0.4536 pmol/10^6 sperm and 0.2982 pmol/10^6 sperm and 0.3279 pmol/10^6 sperm and 0.1875 pmol/10^6 sperm and 0.4476 pmol/10^6 sperm and 0.4575 pmol/10^6 sperm and 0.7152 pmol/10^6 sperm and 0.6672 pmol/10^6 sperm and 0.4645 pmol/10^6 sperm and 0.4351 pmol/10^6 sperm and 0.0606 pmol/10^6 sperm and 0.2667 pmol/10^6 sperm | cAMP, non-capacitation media (mouse sperm; [13]): 1 pmol/10^6 sperm and 0.8029 pmol/10^6 sperm and 0.2251 pmol/10^6 sperm and 0.2037 pmol/10^6 sperm and 0.6722 pmol/10^6 sperm and 0.7415 pmol/10^6 sperm and 0.6566 pmol/10^6 sperm and 0.7427 pmol/10^6 sperm and 0.4253 pmol/10^6 sperm and 0.8706 pmol/10^6 sperm and 0.1092 pmol/10^6 sperm and 0.7462 pmol/10^6 sperm | cAMP, capacitation media (mouse sperm; [14]): 0.677 pmol/10^6 sperm and 1.0488 pmol/10^6 sperm and 0.28 pmol/10^6 sperm and 0.63 pmol/10^6 sperm and 0.972 pmol/10^6 sperm and 0.1159 pmol/10^6 sperm and 0.3305 pmol/10^6 sperm and 0.9745 pmol/10^6 sperm and 1.058 pmol/10^6 sperm | cAMP, non-capacitation media (mouse sperm; [14]): 0.555 pmol/10^6 sperm and 1.0234 pmol/10^6 sperm (2×) and 0.88 pmol/10^6 sperm and 0.438 pmol/10^6 sperm and 0.1502 pmol/10^6 sperm and 1.06 pmol/10^6 sperm and 0.8915 pmol/10^6 sperm and 1.0835 pmol/10^6 sperm
